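Five compound concentrations were applied to cells in 96-well plates for 48 hours; endpoints were derived by simple linear interpolation of the resulting dose-response curve. TGI denotes the concentration required for complete inhibition of growth.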
How the values were obtained:
Test in all cases: growth of human tumour cells (NCI), 48 h
DU-145 prostate = system: DU-145 prostate
OVCAR-3 ovarian = system: OVCAR-3 ovarian
RPMI-8226 leukemia = system: RPMI-8226 leukemia
SF-295 CNS = system: SF-295 CNS
NCI-H460 lung = system: NCI-H460 lung
OVCAR-4 ovarian = system: OVCAR-4 ovarian

## CC1(C)CCCCCC(C)(CCCCCCCCCCCO)C1=O (centres undefined)
DU-145 prostate
  TGI: 31.8 µM
OVCAR-3 ovarian
  TGI: 29.9 µM
RPMI-8226 leukemia
  TGI: 47.2 µM
SF-295 CNS
  TGI: 29.6 µM
NCI-H460 lung
  TGI: 31.9 µM
OVCAR-4 ovarian
  TGI: 28.8 µM

## COc1cc(S(=O)(=O)Nc2ccc(-c3csc(N4C(=O)C(C)SC4c4ccccc4O)n3)cc2)ccc1Cl (centres undefined)
DU-145 prostate
  TGI: > 100 µM
OVCAR-3 ovarian
  TGI: > 100 µM
RPMI-8226 leukemia
  TGI: > 100 µM
SF-295 CNS
  TGI: > 100 µM

## Cc1nc(N)c(N2CCN(Cc3ccccc3)CC2)c(=O)[nH]1
DU-145 prostate
  TGI: > 100 µM
OVCAR-3 ovarian
  TGI: > 100 µM
RPMI-8226 leukemia
  TGI: > 100 µM
SF-295 CNS
  TGI: > 100 µM
NCI-H460 lung
  TGI: > 100 µM

## NC(N)=NS(=O)(=O)c1ccc(Nc2c3ccccc3nc3c(C(=O)NC(CO)(CO)CO)cccc23)cc1
DU-145 prostate
  TGI: > 100 µM
OVCAR-3 ovarian
  TGI: > 100 µM
RPMI-8226 leukemia
  TGI: 58.5 µM
SF-295 CNS
  TGI: > 100 µM
NCI-H460 lung
  TGI: 16.6 µM

## O=C1c2ccccc2C(=O)c2c1oc(=O)c1ccccc21
DU-145 prostate
  TGI: 14 µM
OVCAR-3 ovarian
  TGI: 3.61 µM
RPMI-8226 leukemia
  TGI: 19.2 µM
SF-295 CNS
  TGI: 7.41 µM
NCI-H460 lung
  TGI: 10.9 µM
OVCAR-4 ovarian
  TGI: 3.56 µM

## O=C(Nc1ccccc1)Nn1c(-c2cccs2)nc2ccc(I)cc2c1=O
DU-145 prostate
  TGI: 52.3 µM
OVCAR-3 ovarian
  TGI: 31.8 µM
RPMI-8226 leukemia
  TGI: 51.8 µM
SF-295 CNS
  TGI: 98.5 µM
NCI-H460 lung
  TGI: > 100 µM
OVCAR-4 ovarian
  TGI: 90.4 µM

## CCn1c(-c2ccccc2)nc2c1C(=O)c1ccccc1C2=O
DU-145 prostate
  TGI: > 100 µM
OVCAR-3 ovarian
  TGI: 49.5 µM
RPMI-8226 leukemia
  TGI: > 100 µM
SF-295 CNS
  TGI: 62.9 µM
NCI-H460 lung
  TGI: 46.5 µM
OVCAR-4 ovarian
  TGI: 30 µM

## O=c1[nH]c(=O)n(C2OC(CO)C(O)C2O)cc1OCCc1ccccc1 (centres undefined)
DU-145 prostate
  TGI: > 100 µM
OVCAR-3 ovarian
  TGI: > 100 µM
SF-295 CNS
  TGI: > 100 µM
NCI-H460 lung
  TGI: > 100 µM
OVCAR-4 ovarian
  TGI: > 100 µM

## CCN(CC)CCNc1ccc2ncn3c4c(OC)cccc4c(=O)c1c23
DU-145 prostate
  TGI: 24.2 µM
OVCAR-3 ovarian
  TGI: 50.9 µM
SF-295 CNS
  TGI: 25.1 µM
NCI-H460 lung
  TGI: 15.2 µM
OVCAR-4 ovarian
  TGI: 15.4 µM

## Fc1ccc(NCn2nc(COc3ccccc3Cl)n(/N=C/c3ccc(-c4ccc(Cl)cc4Cl)o3)c2=S)cc1Cl
DU-145 prostate
  TGI: > 100 µM
OVCAR-3 ovarian
  TGI: > 100 µM
RPMI-8226 leukemia
  TGI: 72 µM
SF-295 CNS
  TGI: > 100 µM
NCI-H460 lung
  TGI: > 100 µM
OVCAR-4 ovarian
  TGI: > 100 µM

## O=C1N(CN2CCOCC2)CN(CN2CCOCC2)C(=O)N1Cc1ccccc1
DU-145 prostate
  TGI: 63.9 µM
OVCAR-3 ovarian
  TGI: 59.7 µM
RPMI-8226 leukemia
  TGI: 60.3 µM
SF-295 CNS
  TGI: > 100 µM
NCI-H460 lung
  TGI: > 100 µM
OVCAR-4 ovarian
  TGI: > 100 µM

## Cn1c(=O)c2nc3nnc(C#N)c(N)n3c2n(C)c1=O
DU-145 prostate
  TGI: > 100 µM
OVCAR-3 ovarian
  TGI: > 100 µM
RPMI-8226 leukemia
  TGI: > 100 µM
SF-295 CNS
  TGI: > 100 µM
NCI-H460 lung
  TGI: > 100 µM
OVCAR-4 ovarian
  TGI: > 100 µM

## c1ccc2c(c1)CCN1CCc3c([nH]c4ccccc34)C21 (centres undefined)
DU-145 prostate
  TGI: > 100 µM
OVCAR-3 ovarian
  TGI: 66.7 µM
RPMI-8226 leukemia
  TGI: 55.1 µM
SF-295 CNS
  TGI: 57.4 µM
NCI-H460 lung
  TGI: > 100 µM
OVCAR-4 ovarian
  TGI: > 100 µM

## COP(=O)(OC)C(O)/C=C/c1ccco1 (centres undefined)
DU-145 prostate
  TGI: > 100 µM
OVCAR-3 ovarian
  TGI: > 100 µM
RPMI-8226 leukemia
  TGI: > 100 µM
SF-295 CNS
  TGI: > 100 µM
OVCAR-4 ovarian
  TGI: > 100 µM

## COc1ccc(/C=C(\C(=O)OCC(C)C)c2ccc(OC)c(OC)c2)cc1OC
DU-145 prostate
  TGI: > 100 µM
OVCAR-3 ovarian
  TGI: > 100 µM
RPMI-8226 leukemia
  TGI: > 100 µM
SF-295 CNS
  TGI: > 100 µM
NCI-H460 lung
  TGI: > 100 µM
OVCAR-4 ovarian
  TGI: > 100 µM

## Cc1nn(-c2ccccc2)c2c1C(c1cc3ccccc3nc1Cl)NC(=S)N2 (centres undefined)
DU-145 prostate
  TGI: > 100 µM
OVCAR-3 ovarian
  TGI: > 100 µM
RPMI-8226 leukemia
  TGI: 48.7 µM
SF-295 CNS
  TGI: > 100 µM
NCI-H460 lung
  TGI: > 100 µM
OVCAR-4 ovarian
  TGI: > 100 µM

## CC(=O)O[C@H]1[C@H](OC(C)=O)[C@@H](CN=[N+]=[N-])OCO[C@@H]1CN=[N+]=[N-]
DU-145 prostate
  TGI: > 100 µM
RPMI-8226 leukemia
  TGI: > 100 µM
SF-295 CNS
  TGI: > 100 µM
NCI-H460 lung
  TGI: > 100 µM
OVCAR-4 ovarian
  TGI: > 100 µM

## O=C(N/N=C/C=C/c1ccc([N+](=O)[O-])o1)c1ccc(Br)s1
DU-145 prostate
  TGI: > 100 µM
OVCAR-3 ovarian
  TGI: 41.7 µM
RPMI-8226 leukemia
  TGI: 23.4 µM
SF-295 CNS
  TGI: > 100 µM
NCI-H460 lung
  TGI: > 100 µM
OVCAR-4 ovarian
  TGI: 40.2 µM

## COCC(=O)OC1CCn2c1nc1c2C(=O)C(C)=C(NC(C)=O)C1=N (centres undefined)
DU-145 prostate
  TGI: 36.7 µM
OVCAR-3 ovarian
  TGI: 5.85 µM
RPMI-8226 leukemia
  TGI: 6.79 µM
SF-295 CNS
  TGI: 30.4 µM
NCI-H460 lung
  TGI: 31 µM
OVCAR-4 ovarian
  TGI: 4.89 µM

## O=c1oc2cccnc2n1CCN1CCN(c2ccc(Oc3ccccc3)cc2)CC1
DU-145 prostate
  TGI: > 100 µM
OVCAR-3 ovarian
  TGI: > 100 µM
RPMI-8226 leukemia
  TGI: > 100 µM
SF-295 CNS
  TGI: > 100 µM
NCI-H460 lung
  TGI: > 100 µM
OVCAR-4 ovarian
  TGI: 75.4 µM

## CCN(CC)c1nc(N(C)C)c2ccc(OC)cc2n1
RPMI-8226 leukemia
  TGI: 31 µM
SF-295 CNS
  TGI: > 100 µM
NCI-H460 lung
  TGI: 26.5 µM
OVCAR-4 ovarian
  TGI: > 100 µM

## CCCN1CN(c2ccccc2)C2(CCN(CCCC(=O)c3ccc(F)cc3)CC2)C1=O
DU-145 prostate
  TGI: 11.1 µM
OVCAR-3 ovarian
  TGI: 30.3 µM
RPMI-8226 leukemia
  TGI: 42.2 µM
SF-295 CNS
  TGI: 24.8 µM
NCI-H460 lung
  TGI: 26.9 µM
OVCAR-4 ovarian
  TGI: 20.2 µM

## CC1(C)O[C@H]2[C@@H]3N=C(c4ccccc4)O[C@@H]3C=C[C@H]2O1
DU-145 prostate
  TGI: > 100 µM
OVCAR-3 ovarian
  TGI: > 100 µM
RPMI-8226 leukemia
  TGI: > 100 µM
SF-295 CNS
  TGI: > 100 µM
OVCAR-4 ovarian
  TGI: > 100 µM

## CNC(=O)c1n[nH]n(Cc2ccccc2)c1=S
DU-145 prostate
  TGI: > 100 µM
OVCAR-3 ovarian
  TGI: > 100 µM
RPMI-8226 leukemia
  TGI: > 100 µM
SF-295 CNS
  TGI: > 100 µM
NCI-H460 lung
  TGI: > 100 µM
OVCAR-4 ovarian
  TGI: > 100 µM

## O=Cc1[nH]c(=O)[nH]c(=O)c1CCl
DU-145 prostate
  TGI: > 100 µM
OVCAR-3 ovarian
  TGI: > 100 µM
RPMI-8226 leukemia
  TGI: > 72.1 µM
SF-295 CNS
  TGI: > 100 µM
NCI-H460 lung
  TGI: 99.5 µM
OVCAR-4 ovarian
  TGI: > 100 µM

## Cc1cc(N(CCC#N)CCC#N)ccc1/C(N=Nc1ccccc1)=N\NC(=O)c1ccccc1
DU-145 prostate
  TGI: > 100 µM
OVCAR-3 ovarian
  TGI: > 100 µM
RPMI-8226 leukemia
  TGI: > 100 µM
SF-295 CNS
  TGI: > 100 µM
NCI-H460 lung
  TGI: 91 µM
OVCAR-4 ovarian
  TGI: > 100 µM

## C[N+](C)(C)C1(C(=O)[O-])CC1
DU-145 prostate
  TGI: > 100 µM
OVCAR-3 ovarian
  TGI: > 100 µM
RPMI-8226 leukemia
  TGI: > 100 µM
SF-295 CNS
  TGI: > 100 µM
NCI-H460 lung
  TGI: > 100 µM
OVCAR-4 ovarian
  TGI: > 100 µM

## CCOC(=O)/C=C(\C(=O)OCC)n1cnc2c(N)ncnc21
DU-145 prostate
  TGI: 29.1 µM
OVCAR-3 ovarian
  TGI: 21.4 µM
RPMI-8226 leukemia
  TGI: 5.4 µM
SF-295 CNS
  TGI: 32.1 µM
NCI-H460 lung
  TGI: 38.7 µM
OVCAR-4 ovarian
  TGI: > 48.7 µM

## COc1ccc(N2CCN(Cc3c(C(C)=O)[n+](=O)c4ccccc4n3[O-])CC2)cc1
DU-145 prostate
  TGI: > 100 µM
OVCAR-3 ovarian
  TGI: > 100 µM
RPMI-8226 leukemia
  TGI: > 100 µM
SF-295 CNS
  TGI: > 100 µM
NCI-H460 lung
  TGI: > 100 µM
OVCAR-4 ovarian
  TGI: > 100 µM

## COC1=CC(=O)c2c(O)ccc(O)c2C1=O
DU-145 prostate
  TGI: 3.18 µM
OVCAR-3 ovarian
  TGI: 5.03 µM
RPMI-8226 leukemia
  TGI: 38.2 µM
SF-295 CNS
  TGI: 4.35 µM
NCI-H460 lung
  TGI: 12.9 µM
OVCAR-4 ovarian
  TGI: 27.2 µM

From PubChem BioAssay (NCI)
